Legend:
PARP-1 = PARP-1 (Homo sapiens (Human), UniProt P09874); conditions: for DC50: read-out: PARP-1 (DC50 μM), probe P1, <0.25 = assay sensitivity limit; for Kd: read-out: PARP-1 (Kd μM), probe P3, <0.01 = assay sensitivity limit
Method: (§1) Affinity evaluation of the tested compounds and their selectivity with respect to the different PARP isoforms of interest was assessed in a displacement assay.
(§2) a) providing a reaction mixture containing:
(§3) the PARP protein isoform under investigation,
a compound of formula (IP):
(§4) wherein R11 is hydrogen or a methyl group, B is (CH2)n—NH group wherein n is 2 to 6; m is 0 or 1 and X^− is a counterion, and
serial dilutions of the test compound;
(§5) b) comparing the polarization signal generated in the absence of the test compound with the one generated in the presence of different concentrations of the test compound, and
(§6) c) evaluating the ability of the test compound to displace the compound of formula (IP) as defined above indicated from a decreased fluorescence polarization level.
(§7) The 5H-phenanthridin-6-one-derived probe (IP) was selected for its capability of binding to the PARP proteins, both encompassing full-length native proteins and fragment thereof.
(§8) The polarization signal can be measured, e.g., by a plate reader such as the Saphire2 (Tecan). Data analysis was performed, e.g., by using the Dynafit software. Displacement data were also fitted, e.g., by using Excel spreadsheet (Microsoft Inc. Seattle, USA) to a four parameter logistic model (4PL), or Hill-Slope model. The assay was used to test compounds of the present invention. […] Specific probes of formula (IP) used in the assay are: • P1. 9-Dimethylamino-11,11-dimethyl-1-(3-{methyl-[(6-oxo-5,6-dihydro-phenanthridin-2-ylcarbamoyl)-methyl]-carbamoyl}-propyl)-2,3,4,11-tetrahydro-naphtho[2,3-g]quinolinium trifluoroacetate; • P2. 9-Dimethylamino-11,11-dimethyl-1-[3-(3-{[(6-oxo-5,6-dihydro-phenanthridin-2-ylcarbamoyl)-methyl]-amino}-propylcarbamoyl)-propyl]-2,3,4,11-tetrahydro-naphtho[2,3-g]quinolinium trifluoroacetate; • P3. 9-Dimethylamino-11,11-dimethyl-1-[3-(6-{[(6-oxo-5,6-dihydro-phenanthridin-2-ylcarbamoyl)-methyl]-amino}-hexylcarbamoyl)-propyl]-2,3,4,11-tetrahydro-naphtho[2,3-g]quinolinium trifluoroacetate.

PARP-2 = PARP-2 (Homo sapiens (Human), UniProt Q9UGN5); conditions: probe P1; for DC50: read-out: PARP-2 (DC50 μM); for Kd: read-out: PARP-2 (Kd μM)
Method: as §1, §2, §3
a compound of formula (IP):
as §4
serial dilutions of the test compound;
as §5, §6, §7, §8

PARP-3 = PARP-3 (Homo sapiens (Human), UniProt Q9Y6F1); conditions: probe P1; for DC50: read-out: PARP-3 (DC50 μM); for Kd: read-out: PARP-3 (Kd μM)
Chain of PARP-3 (Q9Y6F1 whole entry): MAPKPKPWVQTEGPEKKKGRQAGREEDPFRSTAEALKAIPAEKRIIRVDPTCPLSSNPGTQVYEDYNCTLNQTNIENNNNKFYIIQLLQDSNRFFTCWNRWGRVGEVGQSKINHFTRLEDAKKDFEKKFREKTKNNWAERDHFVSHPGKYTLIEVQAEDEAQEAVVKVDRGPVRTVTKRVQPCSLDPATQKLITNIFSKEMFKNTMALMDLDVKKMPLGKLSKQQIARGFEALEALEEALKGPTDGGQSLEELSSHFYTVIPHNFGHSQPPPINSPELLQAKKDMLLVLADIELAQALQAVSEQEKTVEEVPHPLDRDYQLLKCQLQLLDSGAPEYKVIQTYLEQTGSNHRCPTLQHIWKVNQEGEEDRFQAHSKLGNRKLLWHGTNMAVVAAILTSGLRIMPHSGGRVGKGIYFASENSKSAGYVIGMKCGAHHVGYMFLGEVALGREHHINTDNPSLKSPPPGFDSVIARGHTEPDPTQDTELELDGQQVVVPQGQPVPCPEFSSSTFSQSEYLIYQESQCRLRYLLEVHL
Method: as §1, §2, §3
a compound of formula (IP):
as §4
serial dilutions of the test compound;
as §5, §6, §7, §8

[1] = Pharmacokinetics and oral bioavailability in the mouse; type: in vivo; conditions: for clearance / Vd / AUC / half-life: male, Balb, Nu/Nu, plasma; for clearance / Vd: IV bolus 10 mg/kg; for clearance / Vd / AUC / half-life / C-max (oral): mean; for clearance: read-out: CL (IV bolus); for Vd: read-out: Vdss (IV bolus); for AUC / half-life / C-max (oral): oral 10 mg/kg; for half-life: read-out: T½ (oral) (converted); for F on AUC: oral vs IV dose-normalized AUC, 10 mg/kg
Method: A single administration at the dose of 10 mg/kg was given and three male animals for each route were used. […] After capping and vortex mixing, the plate was centrifuged for 15 minutes at 4000 rpm. The supernatant was considered as final extract and injected onto the LC-MS-MS system (UPLC system: Waters Acquity using BEH C18 50*2.1 mm 1.7 μm analytical column; MS instrument: Waters TQD equipped with Electro-Spray source operating in positive ion mode). Lower limit of quantification is 5.0 ng/mL, upper limit of quantification is 5000 ng/mL. Non-compartmental method (linear trapezoidal rule and linear regression analysis of natural log-transformed plasma concentrations vs. time data) was used. Absolute bioavailability (F) was calculated from the ratio of average oral to IV (intravenous) dose-normalized plasma AUC (area under curve) values.

[2] = system: Capan-1 human pancreatic cancer tumors
Method: Fragments of Capan-1 human pancreatic cancer tumors were implanted subcutaneously. […] Each group included seven animals. The treatment started one day after randomization. Compounds of formula (I) were administered by oral route as a methocel suspension. Tumor dimension was measured regularly by calipers during the experiments and tumor mass was calculated as described in Simeoni M. et al., Cancer Res 2004, 64, 1094-1101.
Temozolomide was administered by oral route at the dose of 50 mg/kg on days 3, 4, 5, 6, 7 and 8. Tumor growth and body weight were measured every 3 days. Tumor growth was assessed by caliper. The two diameters were recorded and the tumor weight was calculated according to the following formula: length (mm)×width^2/2. […] This delay (T−C value) was defined as the difference of time (in days) required for the treatment group (T) and the control group (C) tumors to reach a predetermined size (1 g). Toxicity was evaluated on the basis of body weight reduction and animal survival rate.

[3] = system: hydrogen peroxide induced PAR formation in HeLa cells; assay: cells; conditions: Homo sapiens, read-out: PAR assay (IC50 μM)
Method: Cellular activity of PARP-1 inhibitors was assessed by measuring the inhibition of the hydrogen peroxide induced PAR formation in HeLa cells (ECACC). Cellular PAR levels were measured by immunocytochemistry, and quantified using an ArrayScan vTi instrument (Cellomics Thermo Scientific).
Studies were performed as follows: 6000 cells/well were seeded in 96 well plates (Perkin Elmer) in MEM/10% FCS and incubated for 24 hours at 37° C., 5% carbon dioxide. Test compounds were then added at the required concentration for 30 minutes. DNA damage was then induced adding hydrogen peroxide at the concentration of 0.1 mM for 15 minutes. Concentration curves were prepared in MEM/10% FCS from compound stocks in DMSO, and final DMSO concentration was 0.002% (v/v). Duplicate wells for each concentration point were prepared with a typical highest compound concentration of 20 μM and serial dilution 1:3. Plates were dried and fixed adding cold methanol-acetone (70:30) solution for 15 minutes at room temperature, fixing solution was aspired and wells were air dried for 5 minutes and then dehydrated in PBS. Non-specific binding sites were blocked by incubating wells for 30 minutes in PBS containing 5% (w/v) FBS 0.05% tween20. Wells were then incubated for 1 hour at room temperature in PBS containing anti PAR mouse monoclonal antibody (Anti-PAR, Mouse mAb 10H, Tulip Cat N° 1020) diluted 1:200 in blocking solution. After 3 washes in PBS, wells incubated in PBS (w/v) 5% FBS 0.05% Tween20 containing 2 μg/mL Cy2-conjugated Goat anti mouse secondary antibody (Amersham Pharmacia Biotech cat. N° PA 42002) (Absorption maximum 489 nm fluorescence maximum 506 nm) and 1 μg/mL DAPI (Absorption maximum 359 nm fluorescence maximum 461 nm) (4′,6-diamidino-2-phenyindole dilactate) (Sigma cat. N° D9564), a high sensitivity dye for nucleic acid staining. After washing further 3 times in PBS, cellular PAR immunoreactivity was assessed using the ArrayScan vTi instrument, with a Zeiss 10×0.5 N.A. objective, and applying the Cytotoxicity. V3 algorithm (Cellomics/Thermo Fisher) with a XF100 filter. At least 10 fields, corresponding to at least 900 cells, were read for each well.
X is the logarithm of concentration, IC50 is the response; IC50 starts at bottom and goes to top with a sigmoid shape.

[4] = system: ovarian cancer patients with confirmed BRCA-1 mutations; conditions: phase I, monotherapy, preliminary data; cited from earlier work
[5] = temozolomide alone 50 mg/kg oral, days 3-8

Chain of PARP-2 (Q9UGN5 whole entry): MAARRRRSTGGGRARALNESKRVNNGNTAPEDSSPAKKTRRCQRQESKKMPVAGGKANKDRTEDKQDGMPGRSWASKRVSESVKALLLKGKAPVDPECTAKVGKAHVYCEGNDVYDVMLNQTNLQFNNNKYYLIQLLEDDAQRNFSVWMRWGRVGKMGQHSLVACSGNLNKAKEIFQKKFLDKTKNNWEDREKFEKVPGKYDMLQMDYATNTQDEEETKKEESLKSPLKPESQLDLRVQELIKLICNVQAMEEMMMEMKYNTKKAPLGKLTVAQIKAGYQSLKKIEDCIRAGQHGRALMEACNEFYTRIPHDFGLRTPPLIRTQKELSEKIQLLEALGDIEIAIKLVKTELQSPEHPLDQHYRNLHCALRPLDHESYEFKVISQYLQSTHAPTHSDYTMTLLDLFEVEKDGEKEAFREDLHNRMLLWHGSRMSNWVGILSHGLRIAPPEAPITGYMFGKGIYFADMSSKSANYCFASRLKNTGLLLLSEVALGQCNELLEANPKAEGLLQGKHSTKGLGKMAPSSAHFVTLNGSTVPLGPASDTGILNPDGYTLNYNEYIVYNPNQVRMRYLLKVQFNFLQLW
Chain of PARP-1 (P09874 whole entry): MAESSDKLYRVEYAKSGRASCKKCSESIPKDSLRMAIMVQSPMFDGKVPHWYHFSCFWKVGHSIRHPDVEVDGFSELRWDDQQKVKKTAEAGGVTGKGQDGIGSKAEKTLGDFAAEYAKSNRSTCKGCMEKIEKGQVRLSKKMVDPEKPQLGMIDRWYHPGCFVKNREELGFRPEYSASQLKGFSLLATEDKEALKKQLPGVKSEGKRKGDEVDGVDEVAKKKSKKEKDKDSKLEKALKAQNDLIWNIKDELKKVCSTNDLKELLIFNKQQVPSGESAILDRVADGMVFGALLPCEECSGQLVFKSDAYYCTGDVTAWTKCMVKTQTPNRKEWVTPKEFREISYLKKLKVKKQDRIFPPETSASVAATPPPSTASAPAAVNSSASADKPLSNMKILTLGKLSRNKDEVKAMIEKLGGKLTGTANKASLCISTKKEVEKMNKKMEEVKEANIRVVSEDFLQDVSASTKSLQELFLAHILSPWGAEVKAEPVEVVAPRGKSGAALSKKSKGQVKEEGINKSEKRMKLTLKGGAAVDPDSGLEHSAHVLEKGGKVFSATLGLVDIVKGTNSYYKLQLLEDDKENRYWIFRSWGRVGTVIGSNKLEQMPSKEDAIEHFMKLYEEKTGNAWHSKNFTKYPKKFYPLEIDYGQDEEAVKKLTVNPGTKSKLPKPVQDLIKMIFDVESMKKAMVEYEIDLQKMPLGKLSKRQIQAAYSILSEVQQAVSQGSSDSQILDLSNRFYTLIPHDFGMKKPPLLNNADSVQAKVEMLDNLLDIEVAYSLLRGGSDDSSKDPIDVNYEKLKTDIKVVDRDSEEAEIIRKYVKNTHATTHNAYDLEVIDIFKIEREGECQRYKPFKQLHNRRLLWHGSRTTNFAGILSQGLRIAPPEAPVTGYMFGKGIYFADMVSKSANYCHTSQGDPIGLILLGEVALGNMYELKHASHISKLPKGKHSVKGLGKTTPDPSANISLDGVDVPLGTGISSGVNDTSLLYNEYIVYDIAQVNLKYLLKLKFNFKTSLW

| Compound | DC50 (PARP-2) | Kd (PARP-2) | DC50 (PARP-3) | further results |
| --- | --- | --- | --- | --- |
| NC(=O)c1cccc2[nH]n(C3CCNCC3)c(=O)c12 [Compound 1, 3-oxo-2-(piperidin-4-yl)-2,3-dihydro-1H-indazole-4-carboxamide] | 1.5 µM | 0.78 µM | 0.58 µM | DC50 (PARP-1): < 0.25 µM; Kd (PARP-1): 0.08 µM |
| NC(=O)c1cccc2[nH]n(C3CCN(C4CCCC4)CC3)c(=O)c12 [Compound 2, 2-(1-cyclopentylpiperidin-4-yl)-3-oxo-2,3-dihydro-1H-indazole-4-carboxamide] | 2 µM | 1.49 µM | > 10 µM |  |
| NC(=O)c1cccc2[nH]n(C3CCN(C4CCCCC4)CC3)c(=O)c12 [Compound 3, 2-(1-cyclohexylpiperidin-4-yl)-3-oxo-2,3-dihydro-1H-indazole-4-carboxamide] | > 10 µM |  | > 10 µM | clearance [1]: 17.8 mL/min/kg; Vd [1]: 1.3 L/kg; AUC [1]: 14.3 µM·h; half-life [1]: 1.77 h; C-max (oral) [1]: 5.6 µM; F on AUC [1]: 67%; T-C (days) ([2]; cpd 3 200 mg/kg oral days 1-12 + temozolomide 50 mg/kg oral days 3-8, time to reach 1 g): superior |
| NC(=O)c1cccc2[nH]n(C3CCN(C4CCC(F)(F)CC4)CC3)c(=O)c12 [Compound 4, 2-[1-(4,4-difluorocyclohexyl)piperidin-4-yl]-3-oxo-2,3-dihydro-1H-indazole-4-carboxamide] | > 10 µM |  | > 10 µM |  |
| Cn1c2cccc(C(N)=O)c2c(=O)n1C1CCN(C2CCCCC2)CC1 [Compound 5, 2-(1-cyclohexylpiperidin-4-yl)-1-methyl-3-oxo-2,3-dihydro-1H-indazole-4-carboxamide] | 0.91 µM | 0.54 µM | 2.15 µM | clearance [1]: 41 mL/min/kg; Vd [1]: 4.3 L/kg; AUC [1]: 10.6 µM·h; half-life [1]: 1.89 h; C-max (oral) [1]: 4.77 µM; F on AUC [1]: 109% |
| Cn1c2cccc(C(N)=O)c2c(=O)n1C1CCN(C2CCC(F)(F)CC2)CC1 [Compound 6, 2-[1-(4,4-difluorocyclohexyl)piperidin-4-yl]-1-methyl-3-oxo-2,3-dihydro-1H-indazole-4-carboxamide] | 3.95 µM | 1.88 µM | 2.34 µM | clearance [1]: 52.7 mL/min/kg; Vd [1]: 2.9 L/kg; AUC [1]: 3.87 µM·h; half-life [1]: 1.13 h; C-max (oral) [1]: 3.07 µM; F on AUC [1]: 49%; DC50 (PARP-1): < 0.25 µM; Kd (PARP-1): < 0.01 µM; IC50 [3]: 0.1 µM |
| Cn1c2cccc(C(N)=O)c2c(=O)n1C1CCN(C2CCCC2)CC1 [Compound 7, 2-(1-cyclopentylpiperidin-4-yl)-1-methyl-3-oxo-2,3-dihydro-1H-indazole-4-carboxamide] | < 0.25 µM | 0.05 µM | 2.58 µM |  |
| CN1CCC(n2[nH]c3cccc(C(N)=O)c3c2=O)CC1 [Compound 8, 2-(1-methylpiperidin-4yl)-3-oxo-2,3-dihydro-1H-indazole-4-carboxamide] | < 0.25 µM | 0.04 µM | 2.75 µM | DC50 (PARP-1): < 0.25 µM; Kd (PARP-1): 0.14 µM; IC50 [3]: 0.6 µM |
| Cn1c2cccc(C(N)=O)c2c(=O)n1C1CCNCC1 [Compound 9, 1-methyl-3-oxo-2-(piperidin-4-yl)-2,3-dihydro-1H-indazole-4-carboxamide] | < 0.25 µM | 0.14 µM | 0.45 µM | DC50 (PARP-1): < 0.25 µM; Kd (PARP-1): 0.014 µM; IC50 [3]: 0.05 µM |
| CC(C)N1CCC(n2c(=O)c3c(C(N)=O)cccc3n2C)CC1 [Compound 14, 1-methyl-3-oxo-2-[1-(propan-2-yl)piperidin-4-yl]-2,3-dihydro-1H-indazole-4-carboxamide] | < 0.25 µM | 0.03 µM | > 10 µM |  |
| NC(=O)c1cccc2[nH]n(C3CCN(C4CCC4)CC3)c(=O)c12 [Compound 16, 2-(1-cyclobutylpiperidin-4-yl)-3-oxo-2,3-dihydro-1H-indazole-4-carboxamide] | 2.57 µM |  | > 10 µM |  |
| Cn1c2cccc(C(N)=O)c2c(=O)n1C1CCN(C2CCC2)CC1 [Compound 18, 2-(1-cyclobutylpiperidin-4-yl)-1-methyl-3-oxo-2,3-dihydro-1H-indazole-4-carboxamide] | < 0.25 µM |  | 2.88 µM |  |
| NC(=O)c1cc(F)cc2[nH]n(C3CCNCC3)c(=O)c12 [Compound 20, 6-fluoro-3-oxo-2-(piperidin-4-yl)-2,3-dihydro-1H-indazole-4-carboxamide] | 0.5 µM | 0.3 µM | 0.25 µM | DC50 (PARP-1): < 0.25 µM; Kd (PARP-1): < 0.01 µM; Kd (PARP-3): 0.05 µM |
| Cn1c2cc(F)cc(C(N)=O)c2c(=O)n1C1CCNCC1 [Compound 21, 6-fluoro-1-methyl-3-oxo-2-(piperidin-4-yl)-2,3-dihydro-1H-indazole-4-carboxamide] | < 0.25 µM | 0.07 µM | 0.22 µM | DC50 (PARP-1): < 0.25 µM; Kd (PARP-1): < 0.01 µM; Kd (PARP-3): 0.04 µM |
| Cn1c2cc(F)cc(C(N)=O)c2c(=O)n1C1CCN(C2CCCCC2)CC1 [Compound 22, 2-(1-cyclohexylpiperidin-4-yl)-6-fluoro-1-methyl-3-oxo-2,3-dihydro-1H-indazole-4-carboxamide] | 0.79 µM | 0.5 µM | 0.7 µM | clearance [1]: 38.7 mL/min/kg; Vd [1]: 6.4 L/kg; AUC [1]: 12.8 µM·h; half-life [1]: 2.25 h; C-max (oral) [1]: 4.72 µM; F on AUC [1]: 150%; Kd (PARP-3): 0.27 µM |
| NC(=O)c1cc(F)cc2[nH]n(C3CCN(C4CCCCC4)CC3)c(=O)c12 [Compound 23, 2-(1-cyclohexylpiperidin-4-yl)-6-fluoro-3-oxo-2,3-dihydro-1H-indazole-4-carboxamide] | 5.94 µM | 5 µM | > 10 µM |  |
| NC(=O)c1cccc2[nH]n(C3CCN(CC4CCCCC4)CC3)c(=O)c12 [Compound 31, 2-[1-(cyclohexylmethyl)piperidin-4-yl]-3-oxo-2,3-dihydro-1H-indazole-4-carboxamide] | > 10 µM |  | > 10 µM |  |
| Cn1c2cccc(C(N)=O)c2c(=O)n1C1CCN(CC2CCCCC2)CC1 [Compound 33, 2-[1-(cyclohexylmethyl)piperidin-4-yl]-1-methyl-3-oxo-2,3-dihydro-1H-indazole-4-carboxamide] | > 10 µM |  | 2.9 µM |  |
| NC(=O)c1cccc2[nH]n(C3CCN(Cc4cccs4)CC3)c(=O)c12 [Compound 62, 3-oxo-2-[1-(thiophen-2-ylmethyl)piperidin-4-yl]-2,3-dihydro-1H-indazole-4-carboxamide] | > 10 µM |  | 0.46 µM | DC50 (PARP-1): < 0.25 µM; Kd (PARP-1): 0.022 µM; IC50 [3]: 0.07 µM |
| Cn1c2cccc(C(N)=O)c2c(=O)n1C1CCN(Cc2cccs2)CC1 [Compound 63, 1-methyl-3-oxo-2-[1-(thiophen-2-ylmethyl)piperidin-4-yl]-2,3-dihydro-1H-indazole-4-carboxamide] | 3.56 µM |  | 1.42 µM |  |
| NC(=O)c1cccc2[nH]n(C3CCN(CC4CC=CCC4)CC3)c(=O)c12 (stereo not drawn) [Compound 64, 2-[1-(cyclohex-3-en-1-ylmethyl)piperidin-4-yl]-3-oxo-2,3-dihydro-1H-indazole-4-carboxamide] | > 10 µM |  | > 10 µM |  |
| Cn1c2cccc(C(N)=O)c2c(=O)n1C1CCN(CC2CC=CCC2)CC1 (stereo not drawn) [Compound 65, 2-[1-(cyclohex-3-en-1-ylmethyl)piperidin-4-yl]-1-methyl-3-oxo-2,3-dihydro-1H-indazole-4-carboxamide] | 4.19 µM |  | 1.78 µM | clearance [1]: 53.8 mL/min/kg; Vd [1]: 3.4 L/kg; AUC [1]: 4.06 µM·h; half-life [1]: 1.16 h; C-max (oral) [1]: 1.93 µM; F on AUC [1]: 50% |
| NC(=O)c1cccc2[nH]n(C3CCN(Cc4ccco4)CC3)c(=O)c12 [Compound 66, 2-[1-(furan-2-ylmethyl)piperidin-4-yl]-3-oxo-2,3-dihydro-1H-indazole-4-carboxamide] | > 10 µM |  | 0.58 µM |  |
| Cn1c2cccc(C(N)=O)c2c(=O)n1C1CCN(Cc2ccco2)CC1 [Compound 67, 2-[1-(furan-2-ylmethyl)piperidin-4-yl]-1-methyl-3-oxo-2,3-dihydro-1H-indazole-4-carboxamide] | 2.29 µM |  | 2.56 µM |  |
| O=C(c1cc(Cc2n[nH]c(=O)c3ccccc23)ccc1F)N1CCN(C(=O)C2CC2)CC1 [Olaparib] |  |  |  | partial responses [4]: 4 out of 10 |
| Cn1nnc2c(C(N)=O)ncn2c1=O [temozolomide] |  |  |  | BWL (%) [2, 5]: 2%; Max TGI (%) [2, 5]: 13%; Toxicity ([2]; temozolomide alone 50 mg/kg oral, days 3-8, seven animals per group): 0/7; T-C ([2]; temozolomide alone 50 mg/kg oral, days 3-8, time to reach 1 g): 1 days |
